Assay results taken from PMC12040169 (PLOS Biology, 2025).

Test: in vitro
Details: human, hela cells, % viability

| SMILES | viability at 28.5 h, 10 µM [%] |
| --- | --- |
| COc1ccccc1N1CCN(CC(CC(=O)Nc2ccccc2)C(=O)O)CC1 (stereo not drawn) [CBK286766] | 88.6 |
| O=C(Cc1c[nH]c2ccccc12)NC(Cc1ccccc1)C(=O)O (stereo not drawn) [CBK286770] | 120 |
| COc1cc2oc(=O)c(CC(=O)N[C@@H](CC(C)C)C(=O)O)c(C)c2cc1Cl [CBK286772] | 104 |
| O=C(O)CCCCC/N=C1\CCc2ccccc2N1 [CBK286773] | 100 |
| O=C(O)Cc1sc(Nc2ccccc2)nc1-c1ccccc1 [CBK286775] | 97.2 |
| Cc1ccc(C(=O)O)cc1NC(=O)C(=O)NCC(c1ccccc1)N(C)C (stereo not drawn) [CBK286777] | 96.3 |
| CCOc1ccc(C(C)(CC(N)=O)C(=O)O)cc1 (stereo not drawn) [CBK286778] | 97.9 |
| CC(=O)Cc1c(C(=O)O)c(C)nn1-c1ccccc1 [CBK286779] | 104 |
| O=C(O)CNC(=O)CCn1c(-c2ccccc2)cc2ccccc21 [CBK286780] | 99.2 |
| CCn1cc(C(=O)N[C@H](C(=O)O)C(C)C)c(=O)c2cc3c(cc21)OCO3 [CBK286786] | 110 |
| O=C(CC(CN1CCN(c2cccc(Cl)c2)CC1)C(=O)O)NCc1ccccc1 (stereo not drawn) [CBK286787] | 100 |
| COc1cccc(NC(=O)CC(CN2CCN(c3ccccc3)CC2)C(=O)O)c1 (stereo not drawn) [CBK286789] | 90.7 |
| CN1CCCN(CC(CC(=O)NCc2ccccc2)C(=O)O)CC1 (stereo not drawn) [CBK286791] | 86.6 |
| Cn1c(=O)c2c(nc(Nc3ccc(Cl)cc3Cl)n2CC(=O)O)n(C)c1=O [CBK286792] | 90.5 |
| CC1CC(C)CN(C(=O)NCCCCCC(=O)O)C1 (stereo not drawn) [CBK286793] | 89 |
| O=C(COc1ccc(Br)cc1C(=O)O)NCCc1ccccc1 [CBK286796] | 95.3 |
| COc1cccc(-c2nc(CC(=O)N3CCC(C(=O)O)CC3)cs2)c1 [CBK286797] | 92.3 |
| O=C(O)C1CCN(C(=O)CCC2CCCCC2)CC1 [CBK286804] | 89.3 |

| SMILES | viability at 28.5 h, 10 µM [%] |
| --- | --- |
| O=C(O)c1c2c(nc3ccccc13)CCN(Cc1ccccc1)C2 [CBK286805] | 87.4 |
| Cc1cc(C)n(C(CC(=O)N2CCCCC2)C(=O)O)n1 (stereo not drawn) [CBK286806] | 85.6 |
| CCn1cc(NCc2ccccc2Cl)c(C(=O)O)n1 [CBK286807] | 95.2 |
| O=C(O)CC(C(=O)Nc1ccccc1)C1CCCO1 (stereo not drawn) [CBK286809] | 93 |
| Cc1nc(OCC(=O)O)c(C#N)c2c1COC(C)(C)C2 [CBK286810] | 89.4 |
| O=C(CC(CN1CCN(Cc2cccc(Cl)c2)CC1)C(=O)O)Nc1cccc(O)c1 (stereo not drawn) [CBK286811] | 88.9 |
| O=C(O)C1CCCN(C(=O)Cn2ccc3ccc(OCc4ccccc4)cc32)C1 (stereo not drawn) [CBK286814] | 89.6 |
| Cc1nc2n(c(=O)c1CCSc1ccccc1C(=O)O)CCCC2 [CBK286818] | 102 |
| C[C@@H]1C[C@H](Nc2ccccc2)c2ccccc2N1C(=O)CCC(=O)O [CBK286820] | 95.8 |
| COc1ccccc1N1CCN(CC(CC(=O)Nc2ccc3c(c2)OCO3)C(=O)O)CC1 (stereo not drawn) [CBK286822] | 95 |
| O=C(O)c1ccccc1NC(=O)N1CCc2[nH]cnc2C1c1cccc(F)c1 (stereo not drawn) [CBK286824] | 93.7 |
| O=C(O)c1nccnc1C(=O)N1CCN(c2ccc(Cl)cc2)CC1 [CBK286826] | 89.4 |
| O=C(O)CC1NC(=O)C(Cc2ccccc2)NC1=O (stereo not drawn) [CBK286827] | 98.1 |
| O=C(O)C1=CC(c2ccccc2)=NS(=O)(=O)N1 [CBK286828] | 108 |
| Cc1cc(=O)oc2cc(OC(C)C(=O)NCC(=O)O)ccc12 (stereo not drawn) [CBK286829] | 106 |
| CC1(C)C(C(=O)O)C1C(=O)NCCc1ccc(O)cc1 (stereo not drawn) [CBK286832] | 104 |
| O=C(CC(CN1CCN(CCN2CCCC2)CC1)C(=O)O)Nc1ccccc1 (stereo not drawn) [CBK286833] | 109 |
| C=C(C)CN1CCN(C(C(=O)O)c2c[nH]c3cc(F)ccc23)CC1 (stereo not drawn) [CBK286835] | 106 |
